Read-outs that look alike come from different tables or passages of the source.
How the values were obtained:
[1] = in vitro 3T3 NRU test, cytotoxicity; format: cell-based, mouse; conditions: mouse, BALB/3T3 clone A31 cells (mouse embryo fibroblasts)
Description: Compounds 2–5 were studied for cytotoxicity/phototoxicity by an in vitro 3T3 NRU-test. The cell line BALB 3T3, clone A31 (mouse embryo fibroblasts), was incubated with the test compounds at a concentration from 15 to 4000 µg/mL for 24 h at 37 °C, 5% CO2, and 95% humidity. The cytotoxicity and phototoxicity were expressed in percentages relative to the negative control determined. […] Based on the dose–response curves, the CC50/PC50 values (50% cytotoxic/phototoxic concentration) were calculated by nonlinear regression analysis (Table 1). The CC50 values can be used to calculate the PIF (photo-irritancy factor) for each test compound according to the following formula: PIF = CC50/PC50.
BALB/3T3 cells were cultured in 75 cm^2 tissue culture flasks in DMEM, 10% FBS, 2 mM glutamine, and antibiotics (penicillin 100 U/mL and streptomycin-100 µg/mL) at 37 °C, 5% CO2, and 90% relative humidity. Cytotoxicity/phototoxicity was assessed by a validated BALB/3T3 clone A31 neutral red uptake assay (3T3 NRU test). Briefly, cells were plated in a 96-well microtiter plate at a density of 1 × 10^4 cells/100 µL/well and incubated for 24 h. A wide concentration range was applied for the test compounds. For the phototoxicity tests, 96-well plates were irradiated with a dose of 2.4 J/cm^2, and the cells were incubated for an additional 24 h. After treatment with neutral red medium, washing, and treatment with the ethanol/acetic acid solution, the absorption was measured on a TECAN microplate reader (TECAN, Grödig, Austria) at a wavelength of 540 nm. The light source which we used was a light-emitting diode (LED) matrix—an artificial solar light simulator Helios-iO, model LE-9ND55-H—5500K (SERIC Ltd., Tokyo, Japan).
Cytotoxicity/phototoxicity were expressed as CC50/PC50 values (concentrations required for 50% cytotoxicity/phototoxicity), calculated using non-linear regression analysis (GraphPad Software GraphPad Prism 9.5.1, San Diego, CA, USA). The CC50 values were used to calculate the PIF (photo-irritancy factor) for each test substance, according to the following formula: […]

MCF-7 [2] = experiment: MTT anti-proliferative test, MCF-7; format: cell-based, human; conditions: for SI (selective index) MCF-7: IC50 MCF-10A/IC50 MCF-7
Excerpt: (§1) The MCF-10A cell line (normal human mammary epithelial cells) served as a reference control.
(§2) All breast cell lines (MCF-10A, MCF-7, and MDA-MB-231) were purchased from the American Type Culture Collection—ATCC (Manassas, VA, USA). The MCF-7 and MDA-MB-231 were cultivated in Dulbecco’s modified Eagle’s medium (DMEM) and supplemented with 10% fetal bovine serum (FBS), 1% sodium pyruvate, and 1% MEM non-essential amino acids (NEAA) without antibiotics. The non-tumorigenic breast cell line (MCF-10A) was cultivated in DMEM medium (Sigma-Aldrich, St. Louis, MO, USA) and supplemented with 10% FBS, 1% sodium pyruvate, 1% non-essential amino acids (NEAA), 20 ng/mL human epithelia growth factor (hEGF), 10 μg/mL insulin, and 0.5 μg/mL hydrocortisone without antibiotics. All cell lines were maintained in a humidified atmosphere, with 5% CO2 at 37 °C.
(§3) Using the standard MTT-dye reduction assay described by Mosmann, the anti-proliferative activity was tested. The method is based on the metabolism of the tetrazolium salt MTT to insoluble formazan. The formazan absorption was registered using a microplate reader at λ = 540 nm. The measured absorption is an indicator of cell viability and metabolic activity. Anti-proliferative activities were expressed as IC50 values (concentrations required for 50% inhibition of cell growth), calculated using non-linear regression analysis (GraphPad Software, San Diego, CA, USA).

MDA-MB-231 [3] = experiment: MTT anti-proliferative test, MDA-MB-231; format: cell-based, human; conditions: for SI (selective index) MDA-MB-231: IC50 MCF-10A/IC50 MDA-MB-231
Excerpt: as §1, §2, §3

MCF-10A = experiment: Cell cycle analysis by propidium iodide staining, MCF-10A; format: cell-based, human; conditions: for change of %G1 vs control, MCF-10A / change of %G2 vs control, MCF-10A / change of %S vs control, MCF-10A: control = 100%, 24 h; for %G1, MCF-10A / %G2, MCF-10A / %S, MCF-10A: treated at IC50, 24 h
Description: (§4) Our study continued with the examination of the effect of the newly synthesized compounds’ IC50 values on cell cycle progression. The cell aliquots were collected, and FACS analyses were used to detect the effects of cell treatments with the selected compounds (2, 4, and 5). A propidium iodide staining assay was performed.
(§5) The changes in the cell cycle distribution in % (G1, S, and G2 phases), based on the graphical figures A–C, were calculated and are given in Table 4.
(§6) The cells were trypsinized, suspended in medium + 10% FCS, and centrifuged (1000 rpm, 5 min); then, the pellet was suspended in PBS (1 mL) and fixed with EtOH. The cells were suspended in 2.5 mL pre-cold 70% EtOH and incubated on ice for 15 min. The staining procedure was as follows: the pellet was suspended in a 500 μL PI-solution in PBS and 0.1 mg/mL RNase A, and 0.05% Triton X-100 was added. After incubation for 10 min at 37 °C, the cells were transferred to the flow cytometer and cell fluorescence was measured. The samples were measured by flow cytometry (LSR II, BD Biosciences, Franklin Lakes, NJ, USA) and analyzed using BD FACS DIVA software v. 6.1.3 (BD Biosciences).

MCF-7 [4] = experiment: Cell cycle analysis by propidium iodide staining, MCF-7; format: cell-based, human; conditions: for cell cycle arrest phase, MCF-7: ER positive cell line; for change of %G1 vs control, MCF-7 / change of %G2 vs control, MCF-7 / change of %S vs control, MCF-7: control = 100%, 24 h; for %G1, MCF-7 / %G2, MCF-7 / %S, MCF-7: treated at IC50, 24 h
Description: as §4, §5, §6

MDA-MB-231 [5] = experiment: Cell cycle analysis by propidium iodide staining, MDA-MB-231; format: cell-based, human; conditions: for cell cycle arrest phase, MDA-MB-231: ER negative cell line; for change of %G1 vs control, MDA-MB-231 / change of %G2 vs control, MDA-MB-231 / change of %S vs control, MDA-MB-231: control = 100%, 24 h; for %G1, MDA-MB-231 / %G2, MDA-MB-231 / %S, MDA-MB-231: treated at IC50, 24 h
Description: as §4, §5, §6

[6] = BALB 3T3, 24 h, NRU, no irradiation (CC50), read-out: IC50 of Mean ± SD, Cytotoxicity
[7] = BALB 3T3, value in brackets, read-out: IC50, Cytotoxicity (converted)
[8] = Homo sapiens, MCF7, MTT, read-out: IC50 MCF-7 (converted)
[9] = Homo sapiens, MCF7, MTT, read-out: IC50 of Mean ± SD, Anti-Proliferative Activity MCF-7
[10] = MTT, read-out: IC50 MCF-7 (converted)
[11] = Homo sapiens, MDA-MB-231, MTT, read-out: IC50 MDA-MB-231 (converted)
[12] = Homo sapiens, MDA-MB-231, MTT, read-out: IC50 MDA-MB-231 (text)
[13] = Homo sapiens, MDA-MB-231, MTT, read-out: IC50 of Mean ± SD, Anti-Proliferative Activity MDA-MB-231
[14] = MTT, read-out: IC50 MDA-MB-231 (converted)

SMILES	IC50 at 24 h [1, 6]	IC50 at 24 h [1, 7]	IC50 (MCF-7 [2]; [8])	IC50 (MCF-7 [2]; [9])	SI (selective index) MCF-7 (MCF-7 [2])	IC50 (MCF-7 [2]; [10])	IC50 (MDA-MB-231 [3]; [11])	IC50 (MDA-MB-231 [3]; [13])	SI (selective index) MDA-MB-231 (MDA-MB-231 [3])	IC50 (MDA-MB-231 [3]; [14])	change of %G1 vs control, MCF-10A (MCF-10A)	change of %G2 vs control, MCF-10A (MCF-10A)	change of %S vs control, MCF-10A (MCF-10A)	%G1, MCF-10A (MCF-10A)	%G2, MCF-10A (MCF-10A)	%S, MCF-10A (MCF-10A)	cell cycle arrest phase, MCF-7 (MCF-7 [4])	change of %G1 vs control, MCF-7 (MCF-7 [4])	change of %G2 vs control, MCF-7 (MCF-7 [4])	change of %S vs control, MCF-7 (MCF-7 [4])	also measured
CCOC(=O)Cc1nc(N)c2c(C)c(C(=O)OCC)sc2n1 [Compound 2, Ethyl 4-Amino-2-(2-Ethoxy-2-Oxoethyl)-5-Methylthieno[2,3-d]Pyrimidine-6-Carboxylate]	1740 ± 75.5 µg/mL	5370 µM	300 µM	83.1 ± 7.3 µg/mL	6.1	260 µM	170 µM	52.6 ± 3.2 µg/mL	9.6	160 µM	+5.439%	−6.42%	−20.8%	85.9%	6.55%	7.328%	arrest was detected in the G1 phase	+11.1%	+7.75%	−7.65%	IC50 (MDA-MB-231 [3]; [12]): 52.6 µg/mL; %G1, MCF-7 (MCF-7 [4]): 44.9%; %G2, MCF-7 (MCF-7 [4]): 10.7%; %S, MCF-7 (MCF-7 [4]): 39.8%; cell cycle arrest phase, MDA-MB-231 (MDA-MB-231 [5]): cell cycle arrest in the G2 stage; change of %G1 vs control, MDA-MB-231 (MDA-MB-231 [5]): −17.63%; change of %G2 vs control, MDA-MB-231 (MDA-MB-231 [5]): +53.65%; change of %S vs control, MDA-MB-231 (MDA-MB-231 [5]): +15%; %G1, MDA-MB-231 (MDA-MB-231 [5]): 34.1%; %G2, MDA-MB-231 (MDA-MB-231 [5]): 6.73%; %S, MDA-MB-231 (MDA-MB-231 [5]): 53.6%
CCOC(=O)c1sc2nc(CC)nc(N)c2c1C [Compound 4, Ethyl 4-Amino-2-Ethyl-5-Methylthieno[2,3-d]Pyrimidine-6-Carboxylate]	2630 µg/mL	9370 µM	100 µM	28.9 ± 2.1 µg/mL	12.7	110 µM	200 µM	62.9 ± 5.7 µg/mL	5.8	240 µM	+4.9%	+15.4%	−29.0%	85.5%	8.108%	6.53%	arrest was detected in the G1 phase	+20%	−22.55%	−8.35%	IC50 (MDA-MB-231 [3]; [12]): 62.9 µg/mL; %G1, MCF-7 (MCF-7 [4]): 48.5%; %G2, MCF-7 (MCF-7 [4]): 7.769%; %S, MCF-7 (MCF-7 [4]): 39.5%; cell cycle arrest phase, MDA-MB-231 (MDA-MB-231 [5]): cell cycle arrest in the G2 stage; change of %G1 vs control, MDA-MB-231 (MDA-MB-231 [5]): −29.46%; change of %G2 vs control, MDA-MB-231 (MDA-MB-231 [5]): +44.9%; change of %S vs control, MDA-MB-231 (MDA-MB-231 [5]): +14.4%; %G1, MDA-MB-231 (MDA-MB-231 [5]): 29.2%; %G2, MDA-MB-231 (MDA-MB-231 [5]): 6.35%; %S, MDA-MB-231 (MDA-MB-231 [5]): 53.3%
CCOC(=O)c1sc2nc(C)nc(N)c2c1C [Compound 5, Ethyl 4-Amino-2,5-Dimethyl-Thieno[2,3-d]Pyrimidine-6-Carboxylate]	1540 ± 61.5 µg/mL	5400 µM	100 µM	35.5 ± 1.5 µg/mL	17.4	140 µM	1500 µM	365 ± 26.6 µg/mL	1.7	1450 µM	+5.52%	+24.657%	−13.9%	86%	8.72%	7.92%	arrest was detected in the G1 phase	+20.54%	−15.7%	−10.2%	%G1, MCF-7 (MCF-7 [4]): 48.7%; %G2, MCF-7 (MCF-7 [4]): 8.40%; %S, MCF-7 (MCF-7 [4]): 38.7%; cell cycle arrest phase, MDA-MB-231 (MDA-MB-231 [5]): cell cycle arrest in the G2 stage; change of %G1 vs control, MDA-MB-231 (MDA-MB-231 [5]): −20%; change of %G2 vs control, MDA-MB-231 (MDA-MB-231 [5]): +45.9%; change of %S vs control, MDA-MB-231 (MDA-MB-231 [5]): +15.45%; %G1, MDA-MB-231 (MDA-MB-231 [5]): 33.1%; %G2, MDA-MB-231 (MDA-MB-231 [5]): 6.439%; %S, MDA-MB-231 (MDA-MB-231 [5]): 53.8%
